From the supplement of paper PMC8671470

What follows are molecules tested on myeloid leukemia patient primary cells Pat.3 (assay: cell viability (% survival relative to DMSO control); higher = less cytotoxic). Details: 10000 nM; 72 h.
Summary of the method: (§1)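 Where an area under the curve appears, it was computed with the drc and PharmacoGx R packages from log-logistic fits. Those fits used four parameters. The underlying viability data came from CellTiter-Glo after 72 h, normalised to DMSO and 10 μM proteasome-inhibitor wells, with thawed, Ficoll-purified AML or CML patient mononuclear cells at 10,000 cells/well in RPMI 1640 with 10% FBS on 384-well plates pre-printed with 70 compounds at five tenfold concentrations (1–10,000 nM) in duplicate.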

| Structure (SMILES) | cell viability |
| --- | --- |
| C=C(C=NNC(=N)N)NNC(=N)N [Mitoguazone] | 53% |
| COc1cc(/C=C/C(=O)N2CCC=CC2=O)cc(OC)c1OC [Piperlongumine] | 3.72% |
| C=C(C)[C@H]1Cc2c(ccc3c2O[C@@H]2COc4cc(OC)c(OC)cc4[C@@H]2C3=O)O1 [Rotenone] | 18% |
| Oc1ccc(Nc2nc(-c3ccc(Cl)cc3)cs2)cc1 [SKI II] | 0.909% |
| CC[C@@]1(O)C(=O)OCc2c1cc1n(c2=O)Cc2cc3c(CN(C)C)c(O)ccc3nc2-1 [Topotecan] | 2.85% |

The molecules below were run on myeloid leukemia patient primary cells Pat.12 in the same assay as above. Details: 1 nM; 72 h.
Summary of the method: as §1

| Structure (SMILES) | cell viability |
| --- | --- |
| O=C(C1CC1)N1CC[C@@H](C=C2NNC(=O)N2c2ccc(-c3ccc4occc4c3)cc2)C1 | 95.4% |
| C[C@H](NC(=O)c1sccc1OCc1ccc(Cl)cc1)c1ccccc1 | 90% |
| O=C(O)C1=CC(=C(c2ccc(O)c(C(=O)O)c2)c2ccc(O)c(C(=O)O)c2)C=CC1=O [Aurintricarboxylic acid] | 96.5% |
| COC(=O)[C@]12CCC(C)(C)C[C@H]1[C@H]1C(=O)C=C3[C@@]4(C)C=C(C#N)C(=O)C(C)(C)[C@@H]4CC[C@@]3(C)[C@]1(C)CC2 [Bardoxolone methyl] | 97.3% |
| Cc1c(-c2ccc(-c3ccccc3F)cc2)nc2ccc(F)cc2c1C(=O)O [Brequinar] | 22% |
| O=C1O/C(=C/Br)CCC1c1cccc2ccccc12 (centres undefined) [Bromoenol Lactone] | 100% |
| Nc1nc(Cl)nc2c1ncn2[C@H]1C[C@H](O)[C@@H](CO)O1 [Cladribine] | 94.5% |
| N#CC(C#N)=NNc1ccc(OC(F)(F)F)cc1 [FCCP] | > 100% |
| O=C1c2cc([N+](=O)[O-])ccc2-n2c1nc1ccccc1c2=O [GNF-Pf-3777] | 98% |
| O=C(O)Cn1nnc(-c2cc(N3CCC(Oc4cc(F)ccc4Br)CC3)no2)n1 [MK-8245] | > 100% |
| C=C(C=NNC(=N)N)NNC(=N)N [Mitoguazone] | > 100% |
| COc1cc(/C=C/C(=O)N2CCC=CC2=O)cc(OC)c1OC [Piperlongumine] | 99.6% |
| C=C(C)[C@H]1Cc2c(ccc3c2O[C@@H]2COc4cc(OC)c(OC)cc4[C@@H]2C3=O)O1 [Rotenone] | 94.8% |
| Oc1ccc(Nc2nc(-c3ccc(Cl)cc3)cs2)cc1 [SKI II] | 89.9% |
| CC[C@@]1(O)C(=O)OCc2c1cc1n(c2=O)Cc2cc3c(CN(C)C)c(O)ccc3nc2-1 [Topotecan] | 95.3% |

Same assay, conditions: 10 nM; 72 h

| Structure (SMILES) | cell viability |
| --- | --- |
| O=C(C1CC1)N1CC[C@@H](C=C2NNC(=O)N2c2ccc(-c3ccc4occc4c3)cc2)C1 | 92.8% |
| C[C@H](NC(=O)c1sccc1OCc1ccc(Cl)cc1)c1ccccc1 | 98.4% |
| O=C(O)C1=CC(=C(c2ccc(O)c(C(=O)O)c2)c2ccc(O)c(C(=O)O)c2)C=CC1=O [Aurintricarboxylic acid] | 97.4% |
| COC(=O)[C@]12CCC(C)(C)C[C@H]1[C@H]1C(=O)C=C3[C@@]4(C)C=C(C#N)C(=O)C(C)(C)[C@@H]4CC[C@@]3(C)[C@]1(C)CC2 [Bardoxolone methyl] | 92.7% |
| Cc1c(-c2ccc(-c3ccccc3F)cc2)nc2ccc(F)cc2c1C(=O)O [Brequinar] | 99% |
| O=C1O/C(=C/Br)CCC1c1cccc2ccccc12 (centres undefined) [Bromoenol Lactone] | > 100% |
| Nc1nc(Cl)nc2c1ncn2[C@H]1C[C@H](O)[C@@H](CO)O1 [Cladribine] | 83.1% |
| N#CC(C#N)=NNc1ccc(OC(F)(F)F)cc1 [FCCP] | 93.3% |
| O=C1c2cc([N+](=O)[O-])ccc2-n2c1nc1ccccc1c2=O [GNF-Pf-3777] | 96.3% |
| O=C(O)Cn1nnc(-c2cc(N3CCC(Oc4cc(F)ccc4Br)CC3)no2)n1 [MK-8245] | 88.3% |
| C=C(C=NNC(=N)N)NNC(=N)N [Mitoguazone] | 90% |
| COc1cc(/C=C/C(=O)N2CCC=CC2=O)cc(OC)c1OC [Piperlongumine] | 88.9% |
| C=C(C)[C@H]1Cc2c(ccc3c2O[C@@H]2COc4cc(OC)c(OC)cc4[C@@H]2C3=O)O1 [Rotenone] | 89.2% |
| Oc1ccc(Nc2nc(-c3ccc(Cl)cc3)cs2)cc1 [SKI II] | 92.9% |
| CC[C@@]1(O)C(=O)OCc2c1cc1n(c2=O)Cc2cc3c(CN(C)C)c(O)ccc3nc2-1 [Topotecan] | 97% |

Same assay, conditions: 100 nM; 72 h

| Structure (SMILES) | cell viability |
| --- | --- |
| O=C(C1CC1)N1CC[C@@H](C=C2NNC(=O)N2c2ccc(-c3ccc4occc4c3)cc2)C1 | > 100% |
| C[C@H](NC(=O)c1sccc1OCc1ccc(Cl)cc1)c1ccccc1 | 91.8% |
| O=C(O)C1=CC(=C(c2ccc(O)c(C(=O)O)c2)c2ccc(O)c(C(=O)O)c2)C=CC1=O [Aurintricarboxylic acid] | 99.8% |
| COC(=O)[C@]12CCC(C)(C)C[C@H]1[C@H]1C(=O)C=C3[C@@]4(C)C=C(C#N)C(=O)C(C)(C)[C@@H]4CC[C@@]3(C)[C@]1(C)CC2 [Bardoxolone methyl] | 77.3% |
| Cc1c(-c2ccc(-c3ccccc3F)cc2)nc2ccc(F)cc2c1C(=O)O [Brequinar] | 93.2% |
| O=C1O/C(=C/Br)CCC1c1cccc2ccccc12 (centres undefined) [Bromoenol Lactone] | 92.4% |
| Nc1nc(Cl)nc2c1ncn2[C@H]1C[C@H](O)[C@@H](CO)O1 [Cladribine] | 54.4% |
| N#CC(C#N)=NNc1ccc(OC(F)(F)F)cc1 [FCCP] | 99.7% |
| O=C1c2cc([N+](=O)[O-])ccc2-n2c1nc1ccccc1c2=O [GNF-Pf-3777] | 99.1% |
| O=C(O)Cn1nnc(-c2cc(N3CCC(Oc4cc(F)ccc4Br)CC3)no2)n1 [MK-8245] | > 100% |
| C=C(C=NNC(=N)N)NNC(=N)N [Mitoguazone] | 99.3% |
| COc1cc(/C=C/C(=O)N2CCC=CC2=O)cc(OC)c1OC [Piperlongumine] | 95.2% |
| C=C(C)[C@H]1Cc2c(ccc3c2O[C@@H]2COc4cc(OC)c(OC)cc4[C@@H]2C3=O)O1 [Rotenone] | 66.1% |
| Oc1ccc(Nc2nc(-c3ccc(Cl)cc3)cs2)cc1 [SKI II] | 95.8% |
| CC[C@@]1(O)C(=O)OCc2c1cc1n(c2=O)Cc2cc3c(CN(C)C)c(O)ccc3nc2-1 [Topotecan] | 92.1% |

Same assay, conditions: 1000 nM; 72 h

| Structure (SMILES) | cell viability |
| --- | --- |
| O=C(C1CC1)N1CC[C@@H](C=C2NNC(=O)N2c2ccc(-c3ccc4occc4c3)cc2)C1 | 89% |
| C[C@H](NC(=O)c1sccc1OCc1ccc(Cl)cc1)c1ccccc1 | > 100% |
| O=C(O)C1=CC(=C(c2ccc(O)c(C(=O)O)c2)c2ccc(O)c(C(=O)O)c2)C=CC1=O [Aurintricarboxylic acid] | > 100% |
| COC(=O)[C@]12CCC(C)(C)C[C@H]1[C@H]1C(=O)C=C3[C@@]4(C)C=C(C#N)C(=O)C(C)(C)[C@@H]4CC[C@@]3(C)[C@]1(C)CC2 [Bardoxolone methyl] | 95.8% |
| Cc1c(-c2ccc(-c3ccccc3F)cc2)nc2ccc(F)cc2c1C(=O)O [Brequinar] | 98.4% |
| O=C1O/C(=C/Br)CCC1c1cccc2ccccc12 (centres undefined) [Bromoenol Lactone] | 90.9% |
| Nc1nc(Cl)nc2c1ncn2[C@H]1C[C@H](O)[C@@H](CO)O1 [Cladribine] | 20.5% |
| N#CC(C#N)=NNc1ccc(OC(F)(F)F)cc1 [FCCP] | 89.5% |
| O=C1c2cc([N+](=O)[O-])ccc2-n2c1nc1ccccc1c2=O [GNF-Pf-3777] | 99.3% |
